The values below come from US20210395650A1, “COMPOUNDS STABILIZING HYDROLASES IN LIQUIDS” (BASF SE, priority 2018, published 2021).

SMILES strings stand for the structures.

This assay has as its target T1, Savinase® 16.0L (Lederbergia lenta, UniProt P29600).
T1 construct: purchased Sigma-Aldrich
T1 sequence (P29600 1-269): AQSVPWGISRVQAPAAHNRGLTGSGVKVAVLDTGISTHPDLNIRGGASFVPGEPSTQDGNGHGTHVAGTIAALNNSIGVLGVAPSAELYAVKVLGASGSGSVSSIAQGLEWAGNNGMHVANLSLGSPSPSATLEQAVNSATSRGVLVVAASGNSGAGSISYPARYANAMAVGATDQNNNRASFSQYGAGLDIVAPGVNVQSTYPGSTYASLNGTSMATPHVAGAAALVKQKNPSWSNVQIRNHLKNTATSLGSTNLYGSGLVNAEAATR
Description: Protease storage stability in liquid formulations at 37° C. (Suc-AAPF-pNA assay). It counts as biochemical. To be noted: 0.7 wt% Savinase 16.0 L. The method, then:
The storage stability of protease was assessed at 37° C.
Base test formulations were manufactured by making base formulations I to V by mixing the components according to Table 1.
Protease used: Savinase® 16.0L (CAS-No. 9014-01-1, EC-No. 232-752-2) was purchased from Sigma-Aldrich.
The respective component (a) or comparative compound was added, if applicable, to the respective base formulation in amounts as indicated in Table 1.
The amount of protease as provided in Table 1 refers to active protein.
Water was added to accomplish the balance to 100.
Savinase activity at certain points in time as indicated in Table 2 was be determined by employing Succinyl-Ala-Ala-Pro-Phe-p-nitroanilide (Suc-AAPF-pNA, short AAPF) as substrate. pNA is cleaved from the substrate molecule by proteolytic cleavage, resulting in release of yellow color of free pNA which was determined by measuring OD405. Measurements were done at 20° C.
The proteolytic activity values provided in Table 3 were calculated referring to the 100% value determined in the reference formulation at the time 0.
The nomenclature of formulations is as follows: the Roman number before the full stop characterizes the base formulation, the Arabian number the type of compound (A. # compound according to invention (component (a)); (B. #) comparative compound).

The mark [1] stands for this setting: base formulation I, 2.5 wt% compound, 3 d.
Setting [2] is: base formulation I, 2.5 wt% compound, 7 d.
Setting [3] is: base formulation I, 2.5 wt% compound, 14 d.
The mark [4] stands for this setting: base formulation I, 2.5 wt% compound, 21 d.
[5] abbreviates: base formulation I, 2.5 wt% compound, 28 d.
Where [6] appears, read: base formulation I, 2.5 wt% compound, 35 d.
[7] abbreviates: base formulation I, 2.5 wt% compound, T0.
Setting [8] is: base formulation II, 2.5 wt% compound, 3 d.
The mark [9] stands for this setting: base formulation II, 2.5 wt% compound, 7 d.
Where [10] appears, read: base formulation II, 2.5 wt% compound, 14 d.
Setting [11] is: base formulation II, 2.5 wt% compound, 21 d.
Where [12] appears, read: base formulation II, 2.5 wt% compound, 28 d.
Setting [13] is: base formulation II, 2.5 wt% compound, 35 d.
Setting [14] is: base formulation II, 2.5 wt% compound, T0.
Setting [15] is: base formulation III, 2.0 wt% compound, 3 d.
The mark [16] stands for this setting: base formulation III, 2.0 wt% compound, 7 d.
The mark [17] stands for this setting: base formulation III, 2.0 wt% compound, 14 d.
The mark [18] stands for this setting: base formulation III, 2.0 wt% compound, 21 d.
Setting [19] is: base formulation III, 2.0 wt% compound, 28 d.
[20] abbreviates: base formulation III, 2.0 wt% compound, 35 d.
[21] abbreviates: base formulation III, 2.0 wt% compound, T0.
Setting [22] is: base formulation IV, 2.0 wt% compound, 3 d.
[23] abbreviates: base formulation IV, 2.0 wt% compound, 7 d.
Where [24] appears, read: base formulation IV, 2.0 wt% compound, 14 d.
Setting [25] is: base formulation IV, 2.0 wt% compound, 21 d.
Where [26] appears, read: base formulation IV, 2.0 wt% compound, 28 d.
[27] abbreviates: base formulation IV, 2.0 wt% compound, 35 d.
Where [28] appears, read: base formulation IV, 2.0 wt% compound, T0.
Setting [29] is: base formulation V, 2.0 wt% compound, 3 d.
[30] abbreviates: base formulation V, 2.0 wt% compound, 7 d.
Setting [31] is: base formulation V, 2.0 wt% compound, 14 d.
Where [32] appears, read: base formulation V, 2.0 wt% compound, 21 d.
The mark [33] stands for this setting: base formulation V, 2.0 wt% compound, 28 d.
Setting [34] is: base formulation V, 2.0 wt% compound, 35 d.
Setting [35] is: base formulation V, 2.0 wt% compound, T0.

For the compound `CCOC(=O)CC(O)(CC(=O)OCC)C(=O)OCC` [A.1, Triethylcitrate], the “protease activity in the course of time of storage at 37° C.” value (from here on “protease activity in the course”) is, setting by setting: under setting [1], 96%; under setting [2], 93%; under setting [3], 89%; under setting [4], 83%; under setting [5], 79%; under setting [6], 72%. Moreover, the “protease activity in the course” value was 100% under setting [7]; 100% under setting [8]; 96% under setting [9]; 93% under setting [10]; 89% under setting [11]; 83% under setting [12]. Further, the “protease activity in the course” value is reported as 78% under setting [13]; 100% under setting [14]; 98% under setting [15]; 94% under setting [16]; 91% under setting [17]; 87% under setting [18]. Besides, the “protease activity in the course” value under setting [19] was found to be 84%; the “protease activity in the course” value under setting [20] amounted to 81%; the “protease activity in the course” value under setting [21] stood at 100%; the “protease activity in the course” value under setting [22] is recorded as 96%; the “protease activity in the course” value under setting [23] is 93%; the “protease activity in the course” value under setting [24] is 88%. Also, the “protease activity in the course” value was 82% under setting [25]; 79% under setting [26]; 74% under setting [27]; 98% under setting [28]; 94% under setting [29]; 90% under setting [30]. For the same compound, the “protease activity in the course” value stood at 86% under setting [31]; 83% under setting [32]; 79% under setting [33]; 75% under setting [34]; 97% under setting [35].

On to `CCCOC(=O)CC(O)(CC(=O)OCCC)C(=O)OCCC` [A.2, Tripropylcitrate], for which the “protease activity in the course” value is, setting by setting: under setting [1], 100%; under setting [2], 94%; under setting [3], 91%; under setting [4], 85%; under setting [5], 80%; under setting [6], 76%. Moreover, the “protease activity in the course” value is recorded as 101% under setting [7]; 100% under setting [15]; 100% under setting [16]; 96% under setting [17]; 91% under setting [18]; 88% under setting [19]. Moreover, the “protease activity in the course” value under setting [20] is 84% and the “protease activity in the course” value under setting [21] is on record as 102%.

`CCCCOC(=O)CC(O)(CC(=O)OCCCC)C(=O)OCCCC` [A.3, Tributylcitrate]: the “protease activity in the course” value runs as follows: under setting [22], 100%; under setting [23], 96%; under setting [24], 91%; under setting [25], 84%; under setting [26], 81%; under setting [27], 77%. Besides, the “protease activity in the course” value runs as follows: under setting [28], 99%; under setting [29], 98%; under setting [30], 93%; under setting [31], 88%; under setting [32], 85%; under setting [33], 80%. For the same compound, the “protease activity in the course” value reads like this: under setting [34], 74%; under setting [35], 101%.

As for `CCCCOC(=O)CC(CC(=O)OCCCC)(OC(C)=O)C(=O)OCCCC` [A.4, Acetyltributylcitrate], the “protease activity in the course” value stood at 100% under setting [1]; 96% under setting [2]; 92% under setting [3]; 87% under setting [4]; 83% under setting [5]; 79% under setting [6].

In the case of `CCOC(=O)CC(CC(=O)OCC)(OC(C)=O)C(=O)OCC` [A.5, Acetyltriethylcitrate], the “protease activity in the course” value worked out at 96% under setting [1]; 94% under setting [2]; 90% under setting [3]; 85% under setting [4]; 82% under setting [5]; 78% under setting [6]. The “protease activity in the course” value runs as follows: under setting [7], 98%; under setting [8], 101%; under setting [9], 100%; under setting [10], 94%; under setting [11], 90%; under setting [12], 85%. In addition, the “protease activity in the course” value came out at 81% under setting [13]; 102% under setting [14]; 97% under setting [15]; 95% under setting [16]; 91% under setting [17]; 86% under setting [18]. Moreover, the “protease activity in the course” value amounted to 81% under setting [19], 77% under setting [20] and 99% under setting [21].
